Reference: PubChem BioAssay AID977621 (Broad Institute, 2014)
Records with an inconclusive call do not appear. Activity calls are given as the source filed them.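 How the source made its calls: active means Wild-type ribosome reporter drop at least double the humanized mutant ribosome reporter drop, growth loss under a set limit; inconclusive means no clear call, values can overlap the other calls; inactive means the rest.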

Tested on: E. coli wild-type GFP strain growth, fluorescence, 24 h
Test: growth inhibition of wild-type GFP E. coli, dose response, H69 mutant RFP, cherry-pick (AID 977621);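 further: wild-type GFP and H69 mutant RFP strains grown together 50/50 in each well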
[1] = E. coli mixed culture, 24 h, measured here: total growth OD600, test 2

Row | Structure (SMILES) | AC50 [1] [µM] | AC50
1 | Cc1cc(Cl)ccc1OCCCC(=O)OCC(N)=O | > 100 | 
2 | Cc1ccc(OCCn2c(=S)[nH]c3c(N)ncnc32)cc1 | 31.8 | > 100 µM (inactive)
3 | O=C(COC(=O)C1CC2C=CC1C2)NCCc1ccccc1 (configuration not stated) | > 100 | 
4 | O=C(O)CC1(CC(=O)NCc2ccc(-c3cccs3)cc2)CCCCC1 |  | > 100 µM (inactive)
5 | CS(=O)(=O)NCCSc1cc(C(F)(F)F)nc2ccccc12 | 30.4 | > 100 µM (inactive)
6 | CCSc1nc2ccccc2c(=O)n1Cc1ccc(F)cc1 | 49.4 | > 100 µM (inactive)
7 | O=[N+]([O-])c1cncc([N+](=O)[O-])c1Nc1cccc(O)c1 |  | > 100 µM (inactive)
8 | O=C(Nc1ccc2c(c1)OCO2)c1ccc([N+](=O)[O-])cc1[N+](=O)[O-] |  | > 100 µM (inactive)
9 | C=CCn1c(-c2sc(-c3ccccc3)nc2C)n[nH]c1=S |  | > 100 µM (inactive)
10 | COc1ccc(OC)c(CN2CCCC(C(=O)c3ccccc3SC)C2)c1 (configuration not stated) |  | > 100 µM (inactive)
11 | Cc1ccc(-n2nnnc2-c2ccccc2Br)cc1 | 46 | > 100 µM (inactive)
12 | COc1ccc(-n2c(-c3ccc(C)cc3)nc3ccccc3c2=O)cc1 |  | > 100 µM (inactive)
13 | CC1CCCN(c2ccc(C(=O)NCCc3ccccc3)cn2)C1 (configuration not stated) | > 100 | 
14 | CC1(C(=O)NS(=O)(=O)c2ccc3c(c2)CCO3)CCN1C(=O)c1ccccc1CCc1ccccc1 (configuration not stated) |  | > 100 µM (inactive)
15 | O=[N+]([O-])c1ccc2nc(-c3ccccc3[N+](=O)[O-])[nH]c2c1 | > 100 | > 100 µM (inactive)
16 | COc1ccc(NC(=O)Nc2cccc3c2O[C@H](CN(C)S(=O)(=O)c2ccc(Cl)cc2)[C@@H](C)CN([C@H](C)CO)C3=O)cc1 |  | > 100 µM (inactive)
17 | COc1ccc(CN(C)C[C@H]2Oc3ccc(NS(=O)(=O)c4ccc(Cl)cc4)cc3CC(=O)N([C@@H](C)CO)C[C@H]2C)cc1 | > 100 | 
18 | C=CCn1c(C)cc(C(=O)COC(=O)CNC(=O)c2ccccc2)c1C | 44 | 
19 | Cc1cc(C)cc(NC(=O)c2cccc(NC(=O)c3ccco3)c2)c1 | 45.6 | 
20 | O=C(COC(=O)C1CC1)Nc1nc(-c2ccc(F)c(F)c2)cs1 | > 100 | 
21 | CCOC(=O)c1cnc2c(c(C)nn2C)c1Oc1ccc(OC)cc1 | > 100 | 
22 | CN1C(=O)c2ccccc2OC1(C)Cc1ccccc1 (configuration not stated) | 41.6 | > 100 µM (inactive)
23 | Cc1cc(C)c2sc(N(CCN(C)C)C(=O)c3c(F)cccc3F)nc2c1 | > 100 | > 100 µM (inactive)

Row | Structure (SMILES) | AC50 [1] [µM] | AC50
24 | COc1ccc(-c2nnn(CC(=O)N3CCN(c4ccccc4OC)CC3)n2)cc1OC |  | > 100 µM (inactive)
25 | O=S1(=O)c2ccc(Br)cc2OCCC2CCCCN21 (configuration not stated) | > 100 | > 100 µM (inactive)
26 | CCOc1ccc2[nH]c3c(NCCN(C)C)ncnc3c2c1 | > 100 | 
27 | COc1ccc(CNC(=O)CSCc2c(F)cccc2Cl)cc1 | > 100 | 
28 | CN(Cc1ccccc1)C(=O)c1[nH]cnc1C(=O)NCc1ccccc1 | > 100 | > 100 µM (inactive)
29 | COc1cccc(NS(=O)(=O)c2ccc(-c3coc(C)n3)cc2)c1 | 3.29 | > 100 µM (inactive)
30 | O=C(CN1CCN(c2ccc(O)cc2)CC1)Nc1cc(S(=O)(=O)N2CCCC2)ccc1Cl |  | > 100 µM (inactive)
31 | Cc1ccc(NC(=O)C2CCCN(c3ncnc4c3nc3n4CCCCC3)C2)cc1Cl (configuration not stated) | > 100 | 
32 | Fc1ccc(-c2nnc(-c3ccc4ccccc4c3)o2)cc1 | > 100 | > 100 µM (inactive)
33 | Cc1csc2c(N3CCC(C(=O)O)CC3)ncnc12 |  | > 100 µM (inactive)
34 | Cc1onc(-c2c(F)cccc2Cl)c1C(=O)c1ccccc1O | 42.4 | 
35 | COc1ccccc1NC(=O)CN1CCSc2ccccc21 |  | > 100 µM (inactive)
36 | N#Cc1ccc(OCC(=O)N2CCN(S(=O)(=O)c3ccc(Cl)s3)CC2)cc1 |  | > 100 µM (inactive)
37 | CCOc1ccc(CCNC(=O)CCn2ccc3cc(S(=O)(=O)N4CCCC4)ccc32)cc1 | 41.4 | > 100 µM (inactive)
38 | O=C(c1ccccc1)c1ccc2nc(-c3ccc(NC(=O)c4ccccc4Br)cc3)[nH]c2c1 | > 100 | > 100 µM (inactive)
39 | COc1ccc(-c2noc(=O)n2Cc2ccccc2Cl)cc1 |  | > 100 µM (inactive)
40 | Cc1sc2ncnc(N3CCCC(C)C3)c2c1C (configuration not stated) |  | > 100 µM (inactive)
41 | Cc1ccc(C2NC(=O)c3[nH]nc(-c4ccccc4)c32)cc1 (configuration not stated) | 42.3 | > 100 µM (inactive)
42 | CCCC(=O)N(CCc1ccc(OC)cc1)Cc1nc2ccccc2c(=O)[nH]1 |  | > 100 µM (inactive)
43 | CC(C)(C)c1ccc(S(=O)(=O)NCc2ccc(C(=O)NCc3ccccn3)cc2)cc1 | > 100 | 
44 | Cc1cccc(CSCC(=O)N2CCN(S(=O)(=O)c3ccccc3C#N)CC2)c1 |  | > 100 µM (inactive)
45 | O=C1NC(CCc2ccccc2)C(=O)N1Cc1cccc2ccccc12 (configuration not stated) | 50 | 
46 | O=S1(=O)N[C@@H](Cc2ccccc2)COc2cc(N3CCC[C@H]3CO)ccc21 |  | > 100 µM (inactive)

Row | Structure (SMILES) | AC50 [1] [µM] | AC50
47 | CCCNC(=O)c1cc(C2CCCN(S(=O)(=O)c3cccc4cccnc34)C2)on1 (configuration not stated) |  | > 100 µM (inactive)
48 | O=C(Nc1ccc(S(=O)(=O)N2CCCC2)cc1)c1ccc(OCC2CCCO2)cc1 (configuration not stated) |  | > 100 µM (inactive)
49 | Nc1ccc2nc(-c3ccc(Cl)cc3)[nH]c2c1 |  | > 100 µM (inactive)
50 | Cc1cc(C(=O)COC(=O)c2ccc(O)cc2)c(C)n1CC(F)(F)F | > 100 | 
51 | O=C(CN1CCCC1)Nc1ccccc1Sc1ccc(Cl)cc1 | 29.9 | > 100 µM (inactive)
52 | O=C(Cn1cc(C(=O)c2ccco2)c2ccccc21)Nc1ccccc1F |  | > 100 µM (inactive)
53 | CN(C)CCCNc1ccc(-c2cc(Nc3cccc(Cl)c3)ncn2)cn1 | > 100 | > 100 µM (inactive)
54 | Cc1ccc(S(=O)(=O)NC(C)C(=O)NCc2ccc(Cl)cc2)cc1 (configuration not stated) | > 100 | > 100 µM (inactive)
55 | O=C(O)c1ccc(-c2noc(-c3cccc(Cl)c3)n2)cc1 |  | > 100 µM (inactive)
56 | Cc1ccc(SCC(=O)Nc2ccc(S(=O)(=O)Nc3nccs3)cc2)cc1 |  | > 100 µM (inactive)
57 | COc1cccc(NC(=O)C2CCC(CNS(=O)(=O)c3cccs3)CC2)c1 (configuration not stated) |  | > 100 µM (inactive)
58 | CSc1ccccc1NC(=O)CN(C)CC(=O)c1c(C)[nH]c2ccccc12 | 46.2 | > 100 µM (inactive)
59 | COc1ccc(NC(=O)Nc2cccc3c2O[C@@H](CN(C)S(=O)(=O)c2ccc(Cl)cc2)[C@H](C)CN([C@H](C)CO)C3=O)cc1 |  | > 100 µM (inactive)
60 | Cc1ccc(OCc2nc(C#N)c(N3CCCCC3)o2)cc1 | 42.7 | > 100 µM (inactive)
61 | CC(NC(=O)C12CC3CC(C)(CC(C)(C3)C1)C2)c1ccncc1 (configuration not stated) | > 100 | 
62 | CC(CCc1ccccc1)NC(=O)CNC(=O)COc1ccccc1 (configuration not stated) | > 100 | 
63 | Cc1ccc(S(=O)(=O)Nc2cccc(-c3ccc(N4CCCCCC4)nn3)c2)cc1 | 28.9 | > 100 µM (inactive)
64 | Cc1ccc(NS(=O)(=O)c2cc(C(=O)N3CCc4ccccc4C3)ccc2Cl)cc1 | 33.3 | 
65 | CC(C)CN(C(=O)c1cc([N+](=O)[O-])cc([N+](=O)[O-])c1)C1CCS(=O)(=O)C1 (configuration not stated) | > 100 | 
66 | Cc1nnc2sc(SCC(=O)Nc3ccc(Br)cc3)nn2c1=O | > 100 | 
67 | CC(C)(C)NC(=O)C(c1ccncc1)N(Cc1ccc(F)cc1)C(=O)c1ccc(-c2ccccc2)[nH]1 (configuration not stated) | > 100 | 
